Measurements: PMC7472354, “Enhanced Antimicrobial Activity of N-Terminal Derivatives of a Novel Brevinin-1 Peptide from The Skin Secretion of Odorrana schmackeri” (Toxins, 2020)
≈ marks a conversion by molar mass, not a printed value. Read-outs that look alike come from different tables or passages of the source. Where a SMILES comes first, the peptide text is derived from it.

Tests used:
[1] = test system: Candida albicans (NCPF 1467); assay type: cell-based; settings: for MBC: NCPF 1467, 18 h; for MIC: NCPF 1467, 24 h
Procedure: (§1) The minimal inhibitory concentrations (MICs) and minimum bactericidal concentrations (MBCs) were evaluated to determine the antimicrobial activity of synthetic peptides. The microorganisms employed in the study are two kinds of Gram-negative bacteria, Escherichia coli (NCTC 10418) and Pseudomonas aeruginosa (ATCC 27853), three kinds of Gram-positive bacteria, Staphylococcus aureus (NCTC 10788), Methicillin-resistant Staphylococcus aureus (MRSA, ATCC 12493) and Enterococcus faecalis (NCTC 12697) and a yeast, Candida albicans (NCPF 1467), as indicated previously. […] The sterilised broth medium was used as the positive control and the microorganism cultured in the medium only was treated as the negative control. […] The MBC results were defined as the lowest bactericidal concentrations of peptide. The antimicrobial activity of peptides was tested by monitoring the absorbance at 550 nm using an ELISA plate reader (Biolise BioTek EL808, Winooski, VT, USA).

[2] = test system: Enterococcus faecalis (NCTC 12697); assay type: cell-based; settings: for MBC: NCTC 12697, 18 h; for MIC: NCTC 12697, 24 h
Procedure: as §1

[3] = test system: Escherichia coli (NCTC 10418); assay type: cell-based; settings: for MBC: NCTC 10418, 18 h; for MIC: NCTC 10418, 24 h
Procedure: as §1

[4] = test system: Methicillin-resistant Staphylococcus aureus (MRSA, ATCC 12493); assay type: cell-based; settings: for MBC: ATCC 12493, 18 h; for MIC: ATCC 12493, 24 h
Procedure: as §1

[5] = test system: Pseudomonas aeruginosa (ATCC 27853); assay type: cell-based; settings: for MBC: ATCC 27853, 18 h; for MIC: ATCC 27853, 24 h
Procedure: as §1

[6] = test system: Staphylococcus aureus (NCTC 10788); assay type: cell-based; settings: for MBC: NCTC 10788, 18 h; for MIC: NCTC 10788, 24 h
Procedure: as §1

[7] = test system: MRSA (ATCC 12493) biofilm; assay type: cell-based, Staphylococcus aureus; settings: for MBIC50 / MBIC90: ATCC 12493, 24 h
Procedure: (§2) The anti-biofilm effects of all synthetic peptides were evaluated, which was described in our previous study. The organisms, including S. aureus (NCTC 10788), E. coli (NCTC 10418), MRSA (ATCC 12493), E. faecalis (NCTC 12697) and P. aeruginosa (ATCC 27853), were investigated in this study. Gram-positive bacteria were cultured in the TSB broth and Gram-negative bacteria were cultured in the LB broth. The anti-biofilm effects were determined based on the MBIC and MBEC of all the peptides. For the determination of MBIC, 5 × 10^5 CFU/mL bacterial cultures were incubated with the peptides concentrations (ranging from 1 µM to 512 µM) for 24 h. The sterilised medium and bacterial suspension without any treatment were used as the negative controls and positive controls, respectively. After incubation, wells were rinsed, fixed, stained, washed and dissolved with phosphate buffer saline (PBS), methanol (90%, v/v), crystal violet (0.1%, w/v), sterile deionised water and acetic acid (30%, v/v), respectively. The absorbance of dissolved stain was measured at a 595 nm using a Synergy HT plate reader (Biotech, Minneapolis, MN, USA).
(§3) For the MBEC assay, the peptide concentrations were prepared as above. The bacteria were cultured in the 96 well plate for 24–48 h, which allowed the formation of mature biofilm in the plate. Then, the bacterial culture was removed from the plate. The biofilm was further washed to remove the planktonic bacteria using PBS. Then, the fresh broth that contained different peptide concentrations was added in the plate for incubation of 24 h at 37 °C. After incubation, the plate was stained by crystal violet as mentioned above. The definition of MBIC can be given when compared to the negative control group (≥90%, MBIC90; ≥50%, MBIC50). The definition of the MBEC can be given when compared to the negative control group (≥90%, MBEC90; ≥50%, MBEC50).

[8] = test system: S. aureus (NCTC 10788) biofilm; assay type: cell-based, Staphylococcus aureus; settings: for MBIC50 / MBIC90: NCTC 10788, 24 h
Procedure: as §2, §3

[9] = test system: E. coli (NCTC 10418) biofilm; assay type: cell-based, Escherichia coli; settings: for MBIC50 / MBIC90: NCTC 10418, 24 h
Procedure: as §2, §3

E. faecalis = assay type: cell-based, Enterococcus faecalis; settings: 24 h
Procedure: (§4) The minimal inhibitory concentrations (MICs) and minimum bactericidal concentrations (MBCs) were evaluated to determine the antimicrobial activity of synthetic peptides. The microorganisms employed in the study are two kinds of Gram-negative bacteria, Escherichia coli (NCTC 10418) and Pseudomonas aeruginosa (ATCC 27853), three kinds of Gram-positive bacteria, Staphylococcus aureus (NCTC 10788), Methicillin-resistant Staphylococcus aureus (MRSA, ATCC 12493) and Enterococcus faecalis (NCTC 12697) and a yeast, Candida albicans (NCPF 1467), as indicated previously. For antimicrobial assays, 5 × 10^5 CFU/mL of bacterial suspensions were incubated with the concentrations of the peptides (ranging from 1 µM to 512 µM) for 24 h at 37 °C. The sterilised broth medium was used as the positive control and the microorganism cultured in the medium only was treated as the negative control. […] The MBC results were defined as the lowest bactericidal concentrations of peptide. The antimicrobial activity of peptides was tested by monitoring the absorbance at 550 nm using an ELISA plate reader (Biolise BioTek EL808, Winooski, VT, USA).
(§5) The activity of peptides in the different environmental conditions including different concentrations of NaCl (50, 100 and 150 mM) and MgCl2 (0.5, 1 and 2 mM), pH (6, 7 and 8), temperature (50 °C, 75 °C and 100 °C) and 10% fetal bovine serum (FBS) solution, was evaluated using the broth microdilution assay as described in the antimicrobial activity assay. For the stability test of peptides in the presence of salt, pH and serum, these conditions were adjusted in the fresh medium that was further used to dilute the bacteria suspension. The peptides were also dissolved in such broth and mixed with the bacteria suspension in the 96 well plate. For the thermal stability test, the peptides were dissolved in the water and incubated at different temperature for 15 min before dosing in the plate. The sterilised broth with corresponding conditions was used as the positive controls, and the bacteria suspension without any treatment was used as the negative controls.

P. aeruginosa = assay type: cell-based, Pseudomonas aeruginosa; settings: 24 h
Procedure: as §4, §5

Structure (SMILES)	MBC [1] [µM]	MIC [1] [µM]	MBC [2] [µM]	MIC [2] [µM]	MBC [3] [µM]	MIC [3] [µM]	MBC [4] [µM]	MIC [4] [µM]	MBC [5] [µM]	MIC [5] [µM]	MBC [6] [µM]	MIC [6] [µM]	MBEC50 [7]	MBEC90 [7] [µM]	MBIC50 [7]	MBIC90 [7] [µM]	MBEC50 [8] [µM]	MBEC90 [8] [µM]	MBIC50 [8] [µM]	MBIC90 [8] [µM]	other results
CC(C)C[C@H](NC(=O)[C@H](C)NC(=O)[C@H](Cc1c[nH]c2ccccc12)NC(=O)[C@H](CCCCN)NC(=O)[C@H](CC(C)C)NC(=O)[C@@H](N)Cc1ccccc1)C(=O)N[C@@H](CCCCN)C(=O)N[C@H](C(=O)N[C@@H](C)C(=O)N[C@@H](C)C(=O)N[C@@H](CCCCN)C(N)=O)C(C)C [OSd] (H-FLKWALKVAAK-NH2)	32 (≈ 40.8 µg/mL)	16 (≈ 20.4 µg/mL)	64 (≈ 81.5 µg/mL)	32 (≈ 40.8 µg/mL)	32 (≈ 40.8 µg/mL)	32 (≈ 40.8 µg/mL)	32 (≈ 40.8 µg/mL)	32 (≈ 40.8 µg/mL)	64 (≈ 81.5 µg/mL)	64 (≈ 81.5 µg/mL)	32 (≈ 40.8 µg/mL)	16 (≈ 20.4 µg/mL)	32/32 µM	256	32/32 µM	64	32	128	8	32	MBEC50 [9]: > 512 µM; MBEC90 [9]: > 512 µM; MBIC50 [9]: 64 µM; MBIC90 [9]: 128 µM; MIC (E. faecalis; pH 6): 256 µM (≈ 326 µg/mL); MIC (E. faecalis; pH 7): 128 µM (≈ 163 µg/mL); MIC (E. faecalis; pH 8): 128 µM (≈ 163 µg/mL); MIC (P. aeruginosa; pH 6): 128 µM (≈ 163 µg/mL); MIC (P. aeruginosa; pH 7): 128 µM (≈ 163 µg/mL); MIC (P. aeruginosa; pH 8): 64 µM (≈ 81.5 µg/mL)
CC(C)C[C@H](NC(=O)[C@H](C)NC(=O)[C@H](Cc1c[nH]c2ccccc12)NC(=O)[C@H](CCCCN)NC(=O)[C@H](CC(C)C)NC(=O)[C@@H](N)Cc1ccccc1)C(=O)N[C@@H](CCCCN)C(=O)N[C@@H](Cc1c[nH]c2ccccc12)C(=O)N[C@@H](C)C(=O)N[C@@H](C)C(=O)N[C@@H](CCCCN)C(N)=O [OSe] (H-FLKWALKWAAK-NH2)	4 (≈ 5.44 µg/mL)	4 (≈ 5.44 µg/mL)	16 (≈ 21.8 µg/mL)	16 (≈ 21.8 µg/mL)	16 (≈ 21.8 µg/mL)	16 (≈ 21.8 µg/mL)	8 (≈ 10.9 µg/mL)	8 (≈ 10.9 µg/mL)	16 (≈ 21.8 µg/mL)	16 (≈ 21.8 µg/mL)	4 (≈ 5.44 µg/mL)	4 (≈ 5.44 µg/mL)	32 µM	32	8 µM	16	32	32	4	8	MBEC50 [9]: > 512 µM; MBEC90 [9]: > 512 µM; MBIC50 [9]: 16 µM; MBIC90 [9]: 32 µM; MIC (E. faecalis; pH 6): 32 µM (≈ 43.5 µg/mL); MIC (E. faecalis; pH 7): 64 µM (≈ 87.1 µg/mL); MIC (E. faecalis; pH 8): 32 µM (≈ 43.5 µg/mL); MIC (P. aeruginosa; pH 6): 32 µM (≈ 43.5 µg/mL); MIC (P. aeruginosa; pH 7): 64 µM (≈ 87.1 µg/mL); MIC (P. aeruginosa; pH 8): 32 µM (≈ 43.5 µg/mL)
CC(C)C[C@H](NC(=O)[C@H](C)NC(=O)[C@H](Cc1c[nH]c2ccccc12)NC(=O)[C@H](CCCCN)NC(=O)[C@@H]1CCCN1C(=O)[C@H](CC(C)C)NC(=O)[C@@H](N)Cc1ccccc1)C(=O)N[C@@H](CCCCN)C(=O)N[C@@H](Cc1c[nH]c2ccccc12)C(=O)N[C@@H](C)C(=O)N[C@@H](C)C(=O)N[C@@H](CCCCN)C(N)=O [OSf] (H-FLPKWALKWAAK-NH2; N-terminus assumed)	16 (≈ 23.3 µg/mL)	8 (≈ 11.7 µg/mL)	64 (≈ 93.3 µg/mL)	32 (≈ 46.7 µg/mL)	16 (≈ 23.3 µg/mL)	8 (≈ 11.7 µg/mL)	64 (≈ 93.3 µg/mL)	16 (≈ 23.3 µg/mL)	64 (≈ 93.3 µg/mL)	64 (≈ 93.3 µg/mL)	16 (≈ 23.3 µg/mL)	8 (≈ 11.7 µg/mL)	32 µM	128	16 µM	64	32	128	8	32	MBEC50 [9]: > 512 µM; MBEC90 [9]: > 512 µM; MBIC50 [9]: 32 µM; MBIC90 [9]: 128 µM; MIC (E. faecalis; pH 6): 512 µM (≈ 746 µg/mL); MIC (E. faecalis; pH 7): 32 µM (≈ 46.7 µg/mL); MIC (E. faecalis; pH 8): 128 µM (≈ 187 µg/mL); MIC (P. aeruginosa; pH 6): 128 µM (≈ 187 µg/mL); MIC (P. aeruginosa; pH 7): 256 µM (≈ 373 µg/mL); MIC (P. aeruginosa; pH 8): 64 µM (≈ 93.3 µg/mL)
